Test results as given in patent US7598382B2, “Aryl substituted imidazoquinolines” (Coley Pharmaceutical Group, Inc., priority 2002, dated 2009).

Compound	melting point
CCOCc1nc2c(N)nc3cc(-c4cccc(C(=O)NCC(C)C)c4)ccc3c2n1CCCOC [Example 171, 3-[4-Amino-2-ethoxymethyl-1-(3-methoxypropyl)-1H-imidazo[4,5-c]quinolin-7-yl]-N-(2-methylpropyl)benzamide]	209 to 210 °C
CCOCc1nc2c(N)nc3cc(-c4ccc(S(=O)(=O)CC)cc4)ccc3c2n1CCCOC [Example 172, 7-[(4-Ethanesulfonyl)phenyl]-2-ethoxymethyl-1-(3-methoxypropyl)-1H-imidazo[4,5-c]quinolin-4-amine]	156 to 158 °C
CCOCc1nc2c(N)nc3cc(-c4ccc(OC(C)C)cc4)ccc3c2n1CCCOC [Example 173, 2-Ethoxymethyl-7-[4-(2-propoxy)phenyl]-1-(3-methoxypropyl)-1H-imidazo[4,5-c]quinolin-4-amine]	175 to 177 °C
CCOCc1nc2c(N)nc3cc(-c4ccccc4)ccc3c2n1CC1CCN(C(=O)OC(C)(C)C)CC1 [Example 191, tert-Butyl 4-[(4-amino-2-ethoxymethyl-7-phenyl-1H-imidazo[4,5-c]quinolin-1-yl)methyl]piperidine-1-carboxylate]	194 to 195 °C
CCOCc1nc2c(N)nc3cc(-c4ccccc4)ccc3c2n1CC1CCNCC1 [Example 192, 2-Ethoxymethyl-7-phenyl-1-(piperidin-4-ylmethyl)-1H-imidazo[4,5-c]quinolin-4-amine]	142 to 143 °C
CCOCc1nc2c(N)nc3cc(-c4ccccc4)ccc3c2n1CC1CCN(S(C)(=O)=O)CC1 [Example 193, 2-Ethoxymethyl-1-{[1-(methanesulfonyl)piperidin-4-yl]methyl}-7-phenyl-1H-imidazo[4,5-c]quinolin-4-amine]	224 to 225 °C
CCOCc1nc2c(N)nc3cc(-c4ccccc4)ccc3c2n1CC1CCN(C(=O)N2CCOCC2)CC1 [Example 195, 2-Ethoxymethyl-1-{[1-(morpholin-4-ylcarbonyl)piperidin-4-yl]methyl}-7-phenyl-1H-imidazo[4,5-c]quinolin-4-amine]	208 to 209 °C
Nc1nc2cc(-c3ccccc3)ccc2c2c1nc(CC1CC1)n2CCOc1ccccc1 [Example 196, 2-Cyclopropylmethyl-1-(2-phenoxyethyl)-7-phenyl-1H-imidazo[4,5-c]quinolin-4-amine]	188 to 189 °C
CCOCc1nc2c(N)nc3cc(-c4ccccc4)ccc3c2n1CCOc1ccccc1 [Example 197, 2-Ethoxymethyl-1-(2-phenoxyethyl)-7-phenyl-1H-imidazo[4,5-c]quinolin-4-amine]	159 to 160 °C
COc1ccc(Cc2nc3c(N)nc4cc(-c5ccccc5)ccc4c3n2CCOc2ccccc2)cc1 [Example 198, 2-(4-Methoxybenzyl)-1-(2-phenoxyethyl)-7-phenyl-1H-imidazo[4,5-c]quinolin-4-amine]	197 to 198 °C
CCCc1nc2c(N)nc3cc(-c4ccccc4)ccc3c2n1CC(C)(C)NS(C)(=O)=O [Example 200, N-[2-(4-Amino-7-phenyl-2-propyl-1H-imidazo[4,5-c]quinolin-1-yl)-1,1-dimethylethyl]methanesulfonamide]	135 to 141 °C
CCOCc1nc2c(N)nc3cc(-c4ccccc4)ccc3c2n1CC(C)(C)NC(=O)C1CCCCC1 [Example 202, Cyclohexane N-[2-(4-amino-2-ethoxymethyl-7-phenyl-1H-imidazo[4,5-c]quinolin-1-yl)-1,1-dimethylethyl]carboxamide]	195 to 198 °C
CCOCc1nc2c(N)nc3cc(-c4ccccc4)ccc3c2n1CC(C)(C)NC(=O)NC1CCCCC1 [Example 203, N-[2-(4-Amino-2-ethoxymethyl-7-phenyl-1H-imidazo[4,5-c]quinolin-1-yl)-1,1-dimethylethyl]-N′-cyclohexylurea]	152 to 156 °C
CCOCc1nc2c(N)nc3cc(-c4cncc(OC)c4)ccc3c2n1CC(C)(C)OCCS(C)(=O)=O [Example 364, 2-Ethoxymethyl-1-{2-[2-(methanesulfonyl)ethoxy]-2-methylpropyl}-7-(5-methoxypyridin-3-yl)-1H-imidazo[4,5-c]quinolin-4-amine]	186 to 188 °C
CCOCc1nc2c(N)nc3cc(-c4ccccc4)ccc3c2n1CCCCS(=O)(=O)N(C)C [Example 366, Dimethyl 4-[4-amino-2-ethoxymethyl-7-phenyl-1H-imidazo[4,5-c]quinolin-1-yl]butane-1-sulfonamide]	207 to 208 °C
CCOCc1nc2c(N)nc3cc(-c4cccnc4)ccc3c2n1CCCCS(=O)(=O)NCc1ccc(OC)cc1 [Example 367, 4-Methoxybenzyl 4-[4-amino-2-ethoxymethyl-7-(pyridin-3-yl)-1H-imidazo[4,5-c]quinolin-1-yl]butane-1-sulfonamide]	230 to 231.5 °C

Other lines, results leading:

melting point	Compound
198 to 199 °C	CCOCc1nc2c(N)nc3cc(-c4cncc(CO)c4)ccc3c2n1CCCOC [Example 167, 2-Ethoxymethyl-1-(3-methoxypropyl)-7-(5-hydroxymethylpyridin-3-yl)-1H-imidazo[4,5-c]quinolin-4-amine]
144 to 145 °C	CCOCc1nc2c(N)nc3cc(-c4ccco4)ccc3c2n1CCCOC [Example 168, 2-Ethoxymethyl-7-(furan-2-yl)-1-(3-methoxypropyl)-1H-imidazo[4,5-c]quinolin-4-amine]
188 to 190 °C	CCOCc1nc2c(N)nc3cc(-c4ccc(Cl)cc4)ccc3c2n1CCCOC [Example 169, 7-(4-Chlorophenyl)-2-ethoxymethyl-1-(3-methoxypropyl)-1H-imidazo[4,5-c]quinolin-4-amine]
163 to 165 °C	CCOCc1nc2c(N)nc3cc(-c4ccc(C(=O)N5CCOCC5)cc4)ccc3c2n1CCCOC [Example 170, {4-[4-Amino-2-ethoxymethyl-1-(3-methoxypropyl)-1H-imidazo[4,5-c]quinolin-7-yl]phenyl}morpholin-4-ylmethanone]
174 to 176 °C	CCOCc1nc2c(N)nc3cc(-c4cccc(C(=O)N5CCOCC5)c4)ccc3c2n1CCCOC [Example 174, {3-[4-Amino-2-ethoxymethyl-1-(3-methoxypropyl)-1H-imidazo[4,5-c]quinolin-7-yl]phenyl}morpholin-4-ylmethanone]
197 to 198 °C	CCOCc1nc2c(N)nc3cc(-c4cccnc4)ccc3c2n1CC1CCN(C(=O)OC(C)(C)C)CC1 [Example 176, tert-Butyl 4-{[4-amino-2-ethoxymethyl-7-(pyridin-3-yl)-1H-imidazo[4,5-c]quinolin-1-yl]methyl}piperidine-1-carboxylate]
191 to 192 °C	CCOCc1nc2c(N)nc3cc(-c4cccnc4)ccc3c2n1CC1CCN(C(=O)C2CCCO2)CC1 (centres unmarked) [Example 182, 2-Ethoxymethyl-7-(pyridin-3-yl)-1-{[1-(tetrahydrofuran-2-ylcarbonyl)piperidin-4-yl]methyl}-1H-imidazo[4,5-c]quinolin-4-amine]
218 to 221 °C	COCCc1nc2c(N)nc3cc(-c4cccnc4)ccc3c2n1CCCN1CCCC1=O [Example 183, 1-{3-[4-Amino-2-(2-methoxyethyl)-7-(pyridin-3-yl)-1H-imidazo[4,5-c]quinolin-1-yl]propyl}pyrrolidin-2-one]
232 to 235 °C	COCCc1nc2c(N)nc3cc(-c4ccncc4)ccc3c2n1CCCN1CCCC1=O [Example 184, 1-{3-[4-Amino-2-(2-methoxyethyl)-7-(pyridin-4-yl)-1H-imidazo[4,5-c]quinolin-1-yl]propyl}pyrrolidin-2-one]
210 to 213 °C	COCCc1nc2c(N)nc3cc(-c4cccc(NS(C)(=O)=O)c4)ccc3c2n1CCCN1CCCC1=O [Example 186, N-(3-{4-Amino-2-(2-methoxyethyl)-1-[3-(2-oxopyrrolidin-1-yl)propyl]-1H-imidazo[4,5-c]quinolin-7-yl}phenyl)methanesulfonamide]
221 to 224 °C	COCCc1nc2c(N)nc3ccc(-c4cccnc4)cc3c2n1CCCN1CCCC1=O [Example 188, 1-{3-[4-Amino-2-(2-methoxyethyl)-8-(pyridin-3-yl)-1H-imidazo[4,5-c]quinolin-1-yl]propyl}pyrrolidin-2-one]
202 to 205 °C	COCCc1nc2c(N)nc3ccc(-c4csc5ccccc45)cc3c2n1CCCN1CCCC1=O [Example 190, 1-{3-[4-amino-8-(benzo[b]thiophen-3-yl)-2-(2-methoxyethyl)-1H-imidazo[4,5-c]quinolin-1-yl]propyl}pyrrolidin-2-one]
201 to 202 °C	COCCc1nc2c(N)nc3cc(-c4ccccc4)ccc3c2n1CCCCNS(C)(=O)=O [Example 199, N-{4-[4-Amino-2-(2-methoxyethyl)-7-phenyl-1H-imidazo[4,5-c]quinolin-1-yl]butyl}methanesulfonamide]
201 to 204 °C	Nc1nc2cc(-c3ccccc3)ccc2c2c1ncn2CCCN1CCCC1=O [Example 204, 1-[3-(4-Amino-7-phenyl-1H-imidazo[4,5-c]quinolin-1-yl)propyl]pyrrolidin-2-one]
199 to 203 °C	CCOCc1nc2c(N)nc3cc(-c4ccccc4)ccc3c2n1CCCN1CCCC1=O [Example 205, 1-[3-(4-Amino-2-ethoxymethyl-7-phenyl-1H-imidazo[4,5-c]quinolin-1-yl)propyl]pyrrolidin-2-one]
187 to 191 °C	COCCc1nc2c(N)nc3cc(-c4ccccc4)ccc3c2n1CCCN1CCCC1=O [Example 206, 1-{3-[4-Amino-2-(2-methoxyethyl)-7-phenyl-1H-imidazo[4,5-c]quinolin-1-yl]propyl}pyrrolidin-2-one]
202 to 204 °C	CCOCc1nc2c(N)nc3cc(-c4cccnc4)ccc3c2n1CC(C)(C)OCCS(C)(=O)=O [Example 363, 2-Ethoxymethyl-1-{2-[2-(methanesulfonyl)ethoxy]-2-methylpropyl}-7-(pyridin-3-yl)-1H-imidazo[4,5-c]quinolin-4-amine]
205 to 206 °C	CCOCc1nc2c(N)nc3cc(-c4cccnc4)ccc3c2n1CCCCS(=O)(=O)N(C)C [Example 365, Dimethyl 4-[4-amino-2-ethoxymethyl-7-(pyridin-3-yl)-1H-imidazo[4,5-c]quinolin-1-yl]butane-1-sulfonamide]
250 to 251.5 °C	CCOCc1nc2c(N)nc3cc(-c4cccnc4)ccc3c2n1CCCCS(N)(=O)=O [Example 368, 4-[4-Amino-2-ethoxymethyl-7-(pyridin-3-yl)-1H-imidazo[4,5-c]quinolin-1-yl]butane-1-sulfonamide]
